Assay results taken from US10156566B2, “Detoxification of microbial virulence factors in oral cavity” (priority 2015, dated 2018).
Several values for one entry are separate records, joined by “and”; a condition that tells them apart may be missing. Identical values can stand only once. Counter-ions that a name gives are not always drawn.

What follows are molecules tested on Lipopolysaccharide (assay: not given). Conditions: not given.

Molecule | inhibition
CCCCCCCCCC(=O)OC[C@H](COP(=O)([O-])OCC[N+](C)(C)C)OC(=O)CCCCCCCCC [1,2-Didecanoyl PC] | 67.9%
CCCCCCCCCC(=O)OC[C@H](CO)OC(=O)CCCCCCCCC [1,2-Didecanoyl-sn-glycerol] | 47.4%
CCCCCCCC(=O)OC[C@H](CO)OC(=O)CCCCCCC [1,2-Dioctanoyl-sn-glycerol] | 51.2%
CCCCC/C=C\C/C=C\C/C=C\C/C=C\CCCC(=O)OCC(O)CO (centres unmarked) [1-Arachidonoyl Glycerol] | 41.8%
CCCCCCCC/C=C\CCCCCCCC(=O)OC[C@H](CO)OC(C)=O [1-Oleoyl-2-acetyl-sn-glycerol] | 36.2%
CCCCC/C=C\C/C=C\C/C=C\C/C=C\CCCC(=O)O[C@H](COC(=O)CCCCCCCCCCCCCCCCC)COP(=O)([O-])OCC[N+](C)(C)C [1-Stearoyl-2-Arachidonoyl PC] | 55%
CCCCC/C=C\C/C=C\C/C=C\C/C=C\CCCCOC(CO)CO [2-Arachidonyl Glycerol ether] | 35%
CC(C)CCC[C@@H](C)[C@H]1CC[C@H]2[C@@H]3CC(=O)[C@@]4(O)C[C@@H](O)CC[C@]4(C)[C@H]3CC[C@]12C [5α-hydroxy-6-keto Cholesterol] | 81.7%
CCCCCCCC/C=C\CCCCCCCC(=O)OCCO [9-octadecenoic acid (z)-,2-hydroxyethyl ester] | 46%
CCCCCCCCCCCC(=O)NCCCN(C)C [(Laurylamidopropyl)dimethyl amine] | 99.1%
O=C1O/C(=C/Br)CC[C@@H]1c1cccc2ccccc12 [(R)-Bromoenol lactone] | 97.3%
O=C1O/C(=C/Br)CC[C@H]1c1cccc2ccccc12 [(S)-Bromoenol lactone] | 95.2%
CC/C=C\C/C=C\C/C=C\CCCCCCCC(=O)OCC [(z,z,z)-9,12,15-octadecatrienoic acid ethyl ester] | 34.9%
CCCCC/C=C\C/C=C\C/C=C\C/C=C\CCCC(=O)Nc1ccc(O)cc1 [AM404] | 47.6%
O=S(=O)(O)c1ccc(O)cc1 [Aluminum phenol sulfonate] | 27.4%
CCCCC/C=C\C/C=C\C/C=C\C/C=C\CCCC(=O)NCCO [Anandamide (N-arachidonylethanol amide)] | 31.3%
O=C1O/C(=C/Br)CCC1c1cccc2ccccc12 (centres unmarked) [Bromoenol lactone] | 99.7%
CCCCCCCCCCCCC/C=C/[C@@H](O)[C@H](CO)NC(=O)CCCCC [C-6 Ceramide] | 48%
CCCCCCCCCCCCC/C=C/[C@@H](O)[C@H](COP(=O)(O)O)NC(=O)CCCCCCC [C-8 Ceramide-1-phosphate] | 42.7%
CCCCCCCCCCCCC/C=C/[C@@H](O)[C@H](CO)NC(=O)CCCCCCC [C-8 Ceramide] | 65.5%
CCCCCCCCCCCCC/C=C/[C@@H](O)[C@H](CO)NCCCCCCCC [C-8 Ceramine] | 96.7%
CCCCCCCCCCCCCCCC[N+](C)(C)C [Cetrimonium chloride] | 99.5%
CCCCCCCCCCCCCCCC[N+](C)(C)C [Cetyltrimethylammonium bromide] | 99.5%
COc1cc(/C=C/C(=O)CC(=O)/C=C/c2ccc(O)c(OC)c2)ccc1O [Curcumin] | 55.9%
CCCCCCCCCCCCC/C=C/[C@@H](O)[C@@H](N)CO [D-erythro-Sphingosine C-18] | 63.8%

Molecule | inhibition
CCCCCCCCCCCC[P+](c1ccccc1)(c1ccccc1)c1ccccc1 [DODECYLTRIPHENYLP[…], 98%, DODECYLTRIPHENYLP[…]] | 91.1%
CCCCCCCCCC[N+](C)(C)CCCCCCCCCC [Didecyldimethylammounium chloride] | 97.5%
CCCCCCCCCCCC(=O)NCCCN(C)C [Dimethylaminopropyllaurylamide] | 99.4%
CCCCCCCCCCCCCCCC[N+](C)(C)Cc1ccccc1 [Dimethylbenzylcetylammonium chloride] | 95.5%
CCCCCCCCCCCC[N+](C)(C)Cc1ccccc1 [Dimethyldodecylbenzylammonium bromide] | 98.1%
CCCCCCCCCCCC[N+](C)(C)Cc1ccccc1 [Dimethyldodecylbenzylammonium chloride] | 98.2%
CCCCCCCC[N+](C)(C)CCCCCCCC [Dioctyldimethylammonium chloride] | 93.3%
CCCCCCCCCCCC(=O)NCCO [Dodecanamide MEA] | 44.3%
CCCCCCCCCCCC[N+](C)(C)CCOc1ccccc1 [Domiphen bromide, reference compound] | 95.5%
CC/C=C\C/C=C\C/C=C\C/C=C\C/C=C\CCCC(=O)O[C@H](COCCCCCCCCCCCCCCCC)COP(=O)([O-])OCC[N+](C)(C)C [Eicosapentaenoyl PAF C-16] | 82.7%
CCCCCCCCc1ccc(CCC(N)(CO)CO)cc1 [FTY720, reference compound] | 79.1%
CCCCCCCCCCCCCCCC(=O)NCCO [Hexadecanamide MEA] | 32.5%
CCCCCCCCCCCCCCCCOC[C@H](CO)OC(C)=O [Hexadecyl Acetyl Glycerol] | 42%
CCCCCCCCCCCCCCCCOCC(CO)OC (centres unmarked) [Hexadecyl Methyl Glycerol] | 40%
CC(C)c1ccc2c(c1)c(SC(C)(C)C)c(CC(C)(C)C(=O)O)n2Cc1ccc(Cl)cc1 [MK 886 (sodium salt)] | 47.2%
Cc1cc(C(C)(C)CC(C)(C)C)ccc1OCCOCC[N+](C)(C)Cc1ccccc1 [Methylbenzethonium chloride, reference compound] | 93%
CCCCCCCCCCCCCCCCOC[C@H](COP(=O)([O-])OCC[N+](C)(C)C)OC(=O)NC [Methylcarbamyl PAF C-16] | 59.7%
CCCCC/C=C\C/C=C\C/C=C\C/C=C\CCCC(=O)NCCc1ccc(O)c(O)c1 [N-Arachidonoyl Dopamine] | 49.1%
CCCCCCCCCCCCCCCCCCCCCC(=O)NCCS(=O)(=O)O [N-Docosanoyl Taurine] | 85.2%
CCCCCCCCCCCCN(CCO)CCO [N-Lauryldiethanolamine] | 99.6% and 100%
CCCCCCCC/C=C\CCCCCCCCCCCCCC(=O)NCCS(=O)(=O)O [N-Nervonoyl Taurine] | 79.8%
CCCCCCCCCCCCCCCC(=O)NCC(=O)O [N-Palmitoyl Glycine] | 85.8%
CCCCCCCC/C=C\CCCCCCCC(=O)NCCO [Oleoylethanolamide] | 34.1%
CCCCCCCC/C=C\CCCCCCCCN [Oleyl amine] | 99.6%
CCCCCCCCCCCCCCCC(=O)OC[C@H](COP(=O)([O-])OCC[N+](C)(C)C)OC(=O)CCCCCCCC(=O)O [PAz-PC] | 72.8%

Molecule | inhibition
CCCCCCCCCCCCCCCC(=O)OC[C@H](COP(=O)([O-])OCC[N+](C)(C)C)OC(=O)CCCC=O [POV-PC] | 48.7%
CCCCCCCCCCCCCCCCCCN(CCO)CCO [STEARYLDIETHANOLAMINE] | 88.1%
CCCCCCCCCCCCCCCCOS(=O)(=O)O [Sodium hexadecyl sulfate] | 89.4%
CCCCCCCCCCCCCCCOS(=O)(=O)O [Sodium pentadecyl sulfate] | 86.6%
CCCCCCCCCCCCCCCCCC[N+](C)(C)Cc1ccccc1 [Stearalkonium chloride] | 96.5%
CCCCCCCCCCCCCCCCCC[N+](C)(C)C [Steartrimonium chloride] | 71.3%
CCCCCCCCCCCCCS(=O)(=O)O [TRIDECYL SULFONIC ACID SODIUM SALT] | 95.6%
CCCCCCCCCCCCCC[N+](C)(C)Cc1ccccc1 [Tetradecylbenzyldimethylammonium chloride] | 93.8%
CC(C)=CCC/C(C)=C/CC/C(C)=C/CC[C@]1(C)CCc2c(C)c(O)c(C)c(C)c2O1 [alpha.-Tocotrienol] | 29.9%
CCCCCCCC/C=C\CCCCCCCC(=O)OCCOCCO [diglycol monooleate] | 67%
CCCCC/C=C\C/C=C\C/C=C\C/C=C\CCCC(=O)OCC [ethyl arachidonate] | 28.7%
CCCCCC/C=C\CCCCCCCC(=O)OCC [ethyl cis-9-hexadecenoate] | 31.8%
CCCCC/C=C\C/C=C\CCCCCCCC(N)=O [linoleamide] | 75.2%
CCCCCCCCCCCCCCCC(=O)NCCO [palmitamide mea] | 13.2%
CCCCC/C=C\C/C=C\CCCCCCCC(=O)O [potassium linoleate] | 98.9%
CCCCCCCC/C=C\CCCCCCCC(=O)OCC(O)CO (stereo not drawn) [α-glyceryl monooloeate] | 49%
CC/C=C\C/C=C\C/C=C\CCCCCCCC(=O)O [α-linoleic acid] | 97.9%
CC/C=C\C/C=C\C/C=C\CCCCCCCC(=O)OC [α-linolenic acid methyl ester] | 24.9%
CC(C)=CCC/C(C)=C/CC/C(C)=C/CC[C@]1(C)CCc2cc(O)c(C)c(C)c2O1 [γ-Tocotrienol] | 38.5%
CC(C)=CCC/C(C)=C/CC/C(C)=C/CC[C@]1(C)CCc2cc(O)cc(C)c2O1 [δ-Tocotrienol] | 52.4%
Benzalkonium chloride [reference compound] | 97.5%
Laureth-6 | 100%
Laureth-9 | 99.9%
Octoxynol-9 | 9.83%
Quaternium-17 | 100%

Each molecule was assayed on E. coli LPS (assay: Displacement of LPS from binding to BODIPY TR cadaverine (Tables 3, 9, 12, 13)). Conditions: E. coli LPS 15 μg/ml.

Molecule | LPS displacement % Mean | LPS displacement % Reading 1 | LPS displacement % Reading 3 | LPS displacement % Reading 2
1,3-Diphenylacetone (1,3 diphenyl-2-propanone) | 11% | 16% | 5% | –
CC(O)C(=O)[O-].CC(O)C(=O)[O-].[Zn+2] (racemic) [dl-lactic acid hemizinc salt] | 19% | 15% | 24% | –
CC(C=O)Cc1ccc(C(C)C)cc1 (centres unmarked) [3-(4-Isopropylphenyl)-2-methylpropionaldehyde] | 39% | 21% | 65% | 29%
CCCCCCCCCCCC(=O)NCCCN(C)C [3-Dodecanamidopropyldimethylamine] | 79% | 87% | 87% | 62%
